Values of other authors in patent US11206824B2, “Gas delivery device comprising a gas releasing molecule and a gas permeable membrane” (Julius-Maximilians-Universitaet Wuerzburg, priority 2015, dated 2021).

Tests used:
[1] = tested on: liver transplantation associated I/R injury; details: pre-treatment of donors, inhaled
[2] = tested on: renal warm ischemia reperfusion injury; details: i.v. 20 mg/kgBW, mice
[3] = tested on: rodent liver; details: 50 μM in modified UW solution, 48 h cold ischemia
[4] = tested on: rodent kidney grafts; details: 1 ml, 100 μmol/L in UW solution, 26 h cold preservation

For `[C-]#[O+]` [CO, carbon monoxide], the “liver transplantation associated I/R injury” value [1] is listed as “ameliorates”.
For `[C-]#[O+].[C-]#[O+].[C-]#[O+].[C-]#[O+].[C-]#[O+].[C-]#[O+].[Cl][Ru][Cl].[Cl][Ru][Cl]` [CORM-2, tricarbonyldichlororuthenium(II) dimer], the “protection against lethal renal warm ischemia reperfusion injury” value [2] is given as “almost completely protects”.
In the case of `NCC(=O)O.[C-]#[O+].[C-]#[O+].[C-]#[O+].[Cl][Ru]` [CORM-3, tricarbonylchloro ruthenium-glycinato], the “perfusion flow, intrahepatic resistance and metabolic capacity” value [3] is given as “improved” and the “cellular and graft injury and survival” value [4] is given as “significant impact on decreasing cellular and graft injury, and improving survival”.
